# Results taken from US20180207228A1, “PEPTIDE COMBINATIONS AND USES THEREOF FOR TREATING GRASS ALLERGY” (ALK-Abelló A/S, priority 2015, published 2018).
# Where no end group is shown, it is not given here.
# Tests used:
# Format in all cases: cell-based, human
# [1] = system: allergen specific T cells; assay: T cell proliferation assay (72 h) on donor derived T cell lines (TCL02/TCL03); conditions: for Proliferation % donor coverage (TCL-02 DK1): T cell lines TCL-02 DK1, 30 donors, hit criteria SI>=2, CPM>=1000; for Proliferation strength (TCL-02 DK1): T cell lines TCL-02 DK1, strength of response (average relative magnitude)
# In short: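 Overlapping 20-mer and selected 15-mer grass allergen peptides were screened for proliferation using TCL02 (day 24) or TCL03 (day 34) lines. Lines came from grass-allergic donors' CD8-depleted PBMCs, primed with natural allergen mix and expanded with irradiated autologous or allogeneic APCs, PHA-P 0.5 μg/ml and rIL-2.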
# [2] = system: release of IL-5 upon T cell activation; assay: Fluorospot assay, IL-5 release (DK1-TCL01, US1-TCL01); conditions: head prints TCL-02 DK1; text: 25 TCL-01 DK1 lines
# In short: (§1)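 A peptide counted as a hit at ≥20 SFC/10^6 cells, stimulation index ≥2 over medium, and p and Poisson ≤0.05. Cells came from TCL01 lines, raised from allergic donors' CD8-depleted PBMCs over 14 days of natural-allergen stimulation with IL-2. They were exposed to 2 μg/ml peptide or peptide mix for 20 h at 37° C.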
# [3] = system: release of IFN-γ upon T cell activation; assay: Fluorospot assay, IFN-γ release (DK1-TCL01, US1-TCL01); conditions: head prints TCL-02 DK1; 17 TCL-01 DK1 lines
# In short: as §1
substance,measurement,setting,value
HGSEEWEPLTKKGNVWEVKS-OH [compound 37],Proliferation % donor coverage (TCL-02 DK1),[1],26.67%
same,Proliferation strength (TCL-02 DK1),[1],3.20
same,IL-5-Fluorospotr % donor coverage (TCL-02 DK1),[2],4.00%
same,IFN-gamma % donor coverage (TCL-02 DK1),[3],0.00%
IKYTRPGDSLAEVELRQHGS-OH [compound 42],Proliferation % donor coverage (TCL-02 DK1),[1],16.67%
same,Proliferation strength (TCL-02 DK1),[1],0.80
same,IL-5-Fluorospotr % donor coverage (TCL-02 DK1),[2],0.00%
same,IFN-gamma % donor coverage (TCL-02 DK1),[3],0.00%
IPKVPPGPNITATYGDKWLD-OH [compound 14],Proliferation % donor coverage (TCL-02 DK1),[1],3.33%
same,Proliferation strength (TCL-02 DK1),[1],0.40
same,IL-5-Fluorospotr % donor coverage (TCL-02 DK1),[2],0.00%
same,IFN-gamma % donor coverage (TCL-02 DK1),[3],0.00%
ITATYGDKWLDAKSTWYGKP-OH [compound 16],Proliferation % donor coverage (TCL-02 DK1),[1],10.00%
same,Proliferation strength (TCL-02 DK1),[1],0.70
same,IL-5-Fluorospotr % donor coverage (TCL-02 DK1),[2],0.00%
same,IFN-gamma % donor coverage (TCL-02 DK1),[3],4.00%
KDKWIELKESWGAIWRIDTP-OH [compound 10],Proliferation % donor coverage (TCL-02 DK1),[1],60.00%
same,Proliferation strength (TCL-02 DK1),[1],9.80
same,IL-5-Fluorospotr % donor coverage (TCL-02 DK1),[2],24.00%
same,IFN-gamma % donor coverage (TCL-02 DK1),[3],4.00%
KEDFLGSLVKEIPPRLLYAK-OH [compound 45],Proliferation % donor coverage (TCL-02 DK1),[1],20.00%
same,Proliferation strength (TCL-02 DK1),[1],4.00
same,IL-5-Fluorospotr % donor coverage (TCL-02 DK1),[2],4.00%
same,IFN-gamma % donor coverage (TCL-02 DK1),[3],0.00%
KPAAAATATATSAVGAATGA-OH [compound 87],Proliferation % donor coverage (TCL-02 DK1),[1],10.00%
same,Proliferation strength (TCL-02 DK1),[1],0.70
same,IL-5-Fluorospotr % donor coverage (TCL-02 DK1),[2],0.00%
same,IFN-gamma % donor coverage (TCL-02 DK1),[3],0.00%
KPPFSGMTGSGNTPI-OH [compound 122],Proliferation % donor coverage (TCL-02 DK1),[1],10.34%
same,Proliferation strength (TCL-02 DK1),[1],0.60
same,IL-5-Fluorospotr % donor coverage (TCL-02 DK1),[2],4.17%
same,IFN-gamma % donor coverage (TCL-02 DK1),[3],0.00%
KPPFSGMTGSGNTPIFKSGR-OH [compound 19],Proliferation % donor coverage (TCL-02 DK1),[1],16.67%
same,Proliferation strength (TCL-02 DK1),[1],1.10
same,IL-5-Fluorospotr % donor coverage (TCL-02 DK1),[2],0.00%
same,IFN-gamma % donor coverage (TCL-02 DK1),[3],0.00%
KPTGAGPKDNGGASGYKDVD-OH [compound 17],Proliferation % donor coverage (TCL-02 DK1),[1],23.33%
same,Proliferation strength (TCL-02 DK1),[1],2.80
same,IL-5-Fluorospotr % donor coverage (TCL-02 DK1),[2],8.00%
same,IFN-gamma % donor coverage (TCL-02 DK1),[3],4.00%
KSSKPLVGPFNFRFMSKGGM-OH [compound 39],Proliferation % donor coverage (TCL-02 DK1),[1],13.33%
same,Proliferation strength (TCL-02 DK1),[1],1.10
same,IL-5-Fluorospotr % donor coverage (TCL-02 DK1),[2],12.00%
same,IFN-gamma % donor coverage (TCL-02 DK1),[3],4.00%
KVPPGPNITATYGDKWLDAK-OH [compound 15],Proliferation % donor coverage (TCL-02 DK1),[1],3.33%
same,Proliferation strength (TCL-02 DK1),[1],0.50
same,IL-5-Fluorospotr % donor coverage (TCL-02 DK1),[2],0.00%
same,IFN-gamma % donor coverage (TCL-02 DK1),[3],0.00%
LSYRSLQPETFAVVDLNKMR-OH [compound 53],Proliferation % donor coverage (TCL-02 DK1),[1],10.00%
same,Proliferation strength (TCL-02 DK1),[1],1.20
same,IL-5-Fluorospotr % donor coverage (TCL-02 DK1),[2],0.00%
same,IFN-gamma % donor coverage (TCL-02 DK1),[3],4.00%
LVKYVNGDGDVVAVDIKEKG-OH [compound 9],Proliferation % donor coverage (TCL-02 DK1),[1],26.67%
same,Proliferation strength (TCL-02 DK1),[1],1.60
same,IL-5-Fluorospotr % donor coverage (TCL-02 DK1),[2],20.00%
same,IFN-gamma % donor coverage (TCL-02 DK1),[3],8.00%
PFDGMTASGNEPIFKDGLGS-OH [compound 94],Proliferation % donor coverage (TCL-02 DK1),[1],16.67%
same,Proliferation strength (TCL-02 DK1),[1],2.90
same,IL-5-Fluorospotr % donor coverage (TCL-02 DK1),[2],4.00%
same,IFN-gamma % donor coverage (TCL-02 DK1),[3],4.00%
PMKSSWGAIWRIDPKKPLKG-OH [compound 108],Proliferation % donor coverage (TCL-02 DK1),[1],33.33%
same,Proliferation strength (TCL-02 DK1),[1],4.10
same,IL-5-Fluorospotr % donor coverage (TCL-02 DK1),[2],4.00%
same,IFN-gamma % donor coverage (TCL-02 DK1),[3],0.00%
PYVSKNPRQAYANYRDIDLG-OH [compound 56],Proliferation % donor coverage (TCL-02 DK1),[1],20.00%
same,Proliferation strength (TCL-02 DK1),[1],3.10
same,IL-5-Fluorospotr % donor coverage (TCL-02 DK1),[2],0.00%
same,IFN-gamma % donor coverage (TCL-02 DK1),[3],4.00%
RASYEIKSKEPVESSGEPVL-OH [compound 96],Proliferation % donor coverage (TCL-02 DK1),[1],6.67%
same,Proliferation strength (TCL-02 DK1),[1],0.60
same,IL-5-Fluorospotr % donor coverage (TCL-02 DK1),[2],0.00%
same,IFN-gamma % donor coverage (TCL-02 DK1),[3],0.00%
RFLTEKGMKNVFDDVVPEKY-OH [compound 34],Proliferation % donor coverage (TCL-02 DK1),[1],6.67%
same,Proliferation strength (TCL-02 DK1),[1],0.60
same,IL-5-Fluorospotr % donor coverage (TCL-02 DK1),[2],4.00%
same,IFN-gamma % donor coverage (TCL-02 DK1),[3],0.00%
RGAAPDDHGGASGYKDVDKP-OH [compound 92],Proliferation % donor coverage (TCL-02 DK1),[1],3.33%
same,Proliferation strength (TCL-02 DK1),[1],0.60
same,IL-5-Fluorospotr % donor coverage (TCL-02 DK1),[2],0.00%
same,IFN-gamma % donor coverage (TCL-02 DK1),[3],0.00%
RIIAGTLEVHAVKPAAEEVK-OH [compound 80],Proliferation % donor coverage (TCL-02 DK1),[1],30.00%
same,Proliferation strength (TCL-02 DK1),[1],4.40
same,IL-5-Fluorospotr % donor coverage (TCL-02 DK1),[2],0.00%
same,IFN-gamma % donor coverage (TCL-02 DK1),[3],0.00%
RNEVVNDVSTYASGKVWGQK-OH [compound 57],Proliferation % donor coverage (TCL-02 DK1),[1],16.67%
same,Proliferation strength (TCL-02 DK1),[1],2.00
same,IL-5-Fluorospotr % donor coverage (TCL-02 DK1),[2],4.00%
same,IFN-gamma % donor coverage (TCL-02 DK1),[3],4.00%
RNVFDEVIPTAFKIGKTYTP-OH [compound 44],Proliferation % donor coverage (TCL-02 DK1),[1],20.00%
same,Proliferation strength (TCL-02 DK1),[1],1.40
same,IL-5-Fluorospotr % donor coverage (TCL-02 DK1),[2],0.00%
same,IFN-gamma % donor coverage (TCL-02 DK1),[3],0.00%
SKYPSGTKITFHIEKGSNDH-OH [compound 103],Proliferation % donor coverage (TCL-02 DK1),[1],36.67%
same,Proliferation strength (TCL-02 DK1),[1],6.50
same,IL-5-Fluorospotr % donor coverage (TCL-02 DK1),[2],8.00%
same,IFN-gamma % donor coverage (TCL-02 DK1),[3],4.00%
SMGDDHFWAVRGGGGESFGI-OH [compound 49],Proliferation % donor coverage (TCL-02 DK1),[1],40.00%
same,Proliferation strength (TCL-02 DK1),[1],5.60
same,IL-5-Fluorospotr % donor coverage (TCL-02 DK1),[2],20.00%
same,IFN-gamma % donor coverage (TCL-02 DK1),[3],12.00%
TALKKAITAMSEAQKAAKPA-OH [compound 85],Proliferation % donor coverage (TCL-02 DK1),[1],20.00%
same,Proliferation strength (TCL-02 DK1),[1],2.80
same,IL-5-Fluorospotr % donor coverage (TCL-02 DK1),[2],4.00%
same,IFN-gamma % donor coverage (TCL-02 DK1),[3],0.00%
TATYGSKWLEARATFYGSNP-OH [compound 90],Proliferation % donor coverage (TCL-02 DK1),[1],26.67%
same,Proliferation strength (TCL-02 DK1),[1],3.50
same,IL-5-Fluorospotr % donor coverage (TCL-02 DK1),[2],12.00%
same,IFN-gamma % donor coverage (TCL-02 DK1),[3],4.00%
TDDNEEPIAPYHFDLSGHAF-OH [compound 4],Proliferation % donor coverage (TCL-02 DK1),[1],40.00%
same,Proliferation strength (TCL-02 DK1),[1],6.40
same,IL-5-Fluorospotr % donor coverage (TCL-02 DK1),[2],28.00%
same,IFN-gamma % donor coverage (TCL-02 DK1),[3],4.00%
TKGKVDPTDYFRNEQSIPPL-OH [compound 60],Proliferation % donor coverage (TCL-02 DK1),[1],13.33%
same,Proliferation strength (TCL-02 DK1),[1],2.60
same,IL-5-Fluorospotr % donor coverage (TCL-02 DK1),[2],0.00%
same,IFN-gamma % donor coverage (TCL-02 DK1),[3],0.00%
TKKGNVWEVKSSKPLVGPFN-OH [compound 38],Proliferation % donor coverage (TCL-02 DK1),[1],50.00%
same,Proliferation strength (TCL-02 DK1),[1],6.60
same,IL-5-Fluorospotr % donor coverage (TCL-02 DK1),[2],24.00%
same,IFN-gamma % donor coverage (TCL-02 DK1),[3],4.00%
TPDKLTGPFTVRYTTEGGTK-OH [compound 26],Proliferation % donor coverage (TCL-02 DK1),[1],13.33%
same,Proliferation strength (TCL-02 DK1),[1],2.00
same,IL-5-Fluorospotr % donor coverage (TCL-02 DK1),[2],24.00%
same,IFN-gamma % donor coverage (TCL-02 DK1),[3],4.00%
TPFPHRKGVLFNIQYVNYWF-OH [compound 50],Proliferation % donor coverage (TCL-02 DK1),[1],43.33%
same,Proliferation strength (TCL-02 DK1),[1],6.70
same,IL-5-Fluorospotr % donor coverage (TCL-02 DK1),[2],28.00%
same,IFN-gamma % donor coverage (TCL-02 DK1),[3],8.00%
